target: T1, human IKK-2 (rhIKK-2 homodimer) (Homo sapiens, UniProt O14920); assay: IKK-2 Resin Enzyme Assay (Human IKK-2 Enzyme Assay); format: biochemical; settings: human IKK-2, resin enzyme assay; read-out: IC50 (μM) hIKK-2
T1 construct: FLAG (DYKDDDDKD) (C); made in house; host or cells: insect cells (baculovirus, pFastBac)
T1 sequence (O14920 1-756): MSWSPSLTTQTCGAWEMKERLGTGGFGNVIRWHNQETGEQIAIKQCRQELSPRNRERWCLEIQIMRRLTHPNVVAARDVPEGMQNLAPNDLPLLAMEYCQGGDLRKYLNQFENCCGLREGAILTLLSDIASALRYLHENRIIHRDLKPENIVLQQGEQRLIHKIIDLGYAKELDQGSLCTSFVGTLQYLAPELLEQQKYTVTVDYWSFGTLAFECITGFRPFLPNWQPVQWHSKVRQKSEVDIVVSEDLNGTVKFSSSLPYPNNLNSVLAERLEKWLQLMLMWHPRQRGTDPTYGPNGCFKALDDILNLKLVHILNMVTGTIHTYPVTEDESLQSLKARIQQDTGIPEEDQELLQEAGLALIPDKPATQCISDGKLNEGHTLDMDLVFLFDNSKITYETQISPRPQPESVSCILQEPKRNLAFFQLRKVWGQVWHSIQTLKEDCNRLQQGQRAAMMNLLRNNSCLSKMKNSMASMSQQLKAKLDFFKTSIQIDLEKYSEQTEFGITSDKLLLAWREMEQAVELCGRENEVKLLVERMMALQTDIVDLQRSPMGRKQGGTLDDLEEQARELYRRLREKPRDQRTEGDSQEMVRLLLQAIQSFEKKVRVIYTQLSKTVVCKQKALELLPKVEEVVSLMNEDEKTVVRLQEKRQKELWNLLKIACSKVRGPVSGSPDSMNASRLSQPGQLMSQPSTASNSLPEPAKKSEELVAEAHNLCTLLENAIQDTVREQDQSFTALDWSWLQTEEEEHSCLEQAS
Outline: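 C-terminally FLAG-tagged human IKK-2 homodimer, baculovirus-expressed in insect cells and anti-FLAG purified. Reaction mix: 5 μM biotinylated IκBα peptide (Ser32/Ser36 region), 1 μM ATP with [γ-33P]ATP, 2 mM MgCl2, 2 mM MnCl2, 10 mM NaF, 1 mM DTT, 25 mM HEPES pH 7.6. Incubated 30 min at 25 °C; IC50 derived.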

Row | IC50 | Structure (SMILES)
1 | 0.79 µM | N#CCc1ccc(-c2ccc(-n3cc(NC(N)=O)c(C(N)=O)n3)cc2)cc1 [Example 37, 4-[(aminocarbonyl)amino]-1-[4′-(cyanomethyl)-1,1′-biphenyl-4-yl]-1H-pyrazole-3-carboxamide]
2 | 0.351 µM | NC(=O)Nc1cn(-c2ccc(-c3ccncc3)cc2)nc1C(N)=O [Example 40, 4-[(aminocarbonyl)amino]-1-(4-pyridin-4-ylphenyl)-1H-pyrazole-3-carboxamide]
3 | 3.45 µM | CC(=O)c1ccccc1-c1cccc(-n2cc(NC(N)=O)c(C(N)=O)n2)c1 [Example 91, 1-(2′-acetyl-1,1′-biphenyl-3-yl)-4-[(aminocarbonyl)amino]-1H-pyrazole-3-carboxamide]
4 | 0.326 µM | NC(=O)Nc1cn(-c2ccc([S+]([O-])c3ccc(F)cc3)cc2)nc1C(N)=O (stereo not shown) [Example 200, 1-(1-(4-(4-fluorophenylsulfinyl)phenyl)-3-carbamoyl-1H-pyrazol-4-yl)urea]
5 | 0.59 µM | Cc1cc(-c2cccc(-n3cc(NC(N)=O)c(C(N)=O)n3)c2)ccn1 [Example 63, 4-[(aminocarbonyl)amino]-1-[3-(2-methylpyridin-4-yl)phenyl]-1H-pyrazole-3-carboxamide]
6 | 4.04 µM | CN(Cc1ccc(F)cc1)C(=O)c1ccc(-c2ccc(-n3cc(NC(N)=O)c(C(N)=O)n3)cc2)cc1F [Example 158, 4-[(aminocarbonyl)amino]-1-(3′-fluoro-4′-{[(4-fluorobenzyl)(methyl)amino]carbonyl}-1,1′-biphenyl-4-yl)-1H-pyrazole-3-carboxamide]
7 | 8.08 µM | NC(=O)Nc1cn(-c2ccc(-c3ccc(C(=O)NCc4ccccc4F)c(F)c3)cc2)nc1C(N)=O [Example 157, 4-[(aminocarbonyl)amino]-1-(3′-fluoro-4′-{[(2-fluorobenzyl)amino]carbonyl}-1,1′-biphenyl-4-yl)-1H-pyrazole-3-carboxamide]
8 | 5.52 µM | Cc1cc(-c2ccc(-n3cc(NC(N)=O)c(C(N)=O)n3)cc2)ccc1F [Example 109, 4-[(aminocarbonyl)amino]-1-(4′-fluoro-3′-methyl-1,1′-biphenyl-4-yl)-1H-pyrazole-3-carboxamide]
9 | > 20 µM | NC(=O)Nc1cn(-c2cccc(-c3ccc(-c4ccccc4)cc3)c2)nc1C(N)=O [Example 373, 4-[(aminocarbonyl)amino]-1-(1,1′:4′,1″-terphenyl-3-yl)-1H-pyrazole-3-carboxamide]
10 | 0.0514 µM | NC(=O)Nc1cn(-c2ccc(Sc3ccncc3)cc2)nc1C(N)=O [Example 206, 1-(3-carbamoyl-1-(4-(pyridin-4-ylthio)phenyl)-1H-pyrazol-4-yl)urea]
11 | 0.386 µM | NC(=O)Nc1cn(-c2ccc(-c3ccc(C(=O)O)c(F)c3)cc2F)nc1C(N)=O [Example 248, 4′-{3-(aminocarbonyl)-4-[(aminocarbonyl)amino]-1H-pyrazol-1-yl}-3,3′-difluoro-1,1′-biphenyl-4-carboxylic acid]
12 | 0.13 µM | NC(=O)Nc1cn(-c2ccc(-c3ccc(C(N)=O)c(F)c3)cc2)nc1C(N)=O [Example 183, 4-[(aminocarbonyl)amino]-1-[4′-(aminocarbonyl)-3′-fluoro-1,1′-biphenyl-4-yl]-1H-pyrazole-3-carboxamide]
13 | 0.42 µM | CCN(CC)C(=O)COc1cccc(-c2ccc(-n3cc(NC(N)=O)c(C(N)=O)n3)cc2)c1 [Example 336, 4-[(aminocarbonyl)amino]-1-{3′-[2-(diethylamino)-2-oxoethoxy]-1,1′-biphenyl-4-yl}-1H-pyrazole-3-carboxamide]
14 | 1.15 µM | NC(=O)Nc1cn(-c2ccc(-c3ccccc3O)c(Cl)c2)nc1C(N)=O [Example 223, 4-[(aminocarbonyl)amino]-1-(2-chloro-2′-hydroxy-1,1′-biphenyl-4-yl)-1H-pyrazole-3-carboxamide]
15 | 6.36 µM | COc1ccc(Cc2cccc(-n3cc(NC(N)=O)c(C(N)=O)n3)c2)cc1OC [Example 11, 4-[(aminocarbonyl)amino]-1-[3-(3,4-dimethoxybenzyl)phenyl]-1H-pyrazole-3-carboxamide]
16 | 0.44 µM | NC(=O)Nc1cn(-c2cccc(-c3cccc(O)c3)c2)nc1C(N)=O [Example 72, 4-[(aminocarbonyl)amino]-1-(3′-hydroxy-1,1′-biphenyl-3-yl)-1H-pyrazole-3-carboxamide]
17 | 7.14 µM | CC(C)NC(=O)c1cccc(-c2ccc(-n3cc(NC(N)=O)c(C(N)=O)n3)cc2)c1 [Example 148, 4-[(aminocarbonyl)amino]-1-{3′-[(isopropylamino)carbonyl]-1,1′-biphenyl-4-yl}-1H-pyrazole-3-carboxamide]

Row | IC50 | Structure (SMILES)
18 | 1.94 µM | Cc1cc(-n2cc(NC(N)=O)c(C(N)=O)n2)ccc1Sc1ccc(F)cc1 [Example 297, 1-[4-(4-fluoro-phenylsulfanyl)-3-methyl-phenyl]-4-ureido-1H-pyrazole-3-carboxylic acid amide]
19 | 1.34 µM | NC(=O)Nc1cn(-c2ccc(-c3cccc(CO)c3)cc2)nc1C(N)=O [Example 39, 4-[(aminocarbonyl)amino]-1-[3′-(hydroxymethyl)-1,1′-biphenyl-4-yl]-1H-pyrazole-3-carboxamide]
20 | 0.89 µM | NC(=O)Nc1cn(-c2ccc(-c3ccc(C(=O)Nc4ccccn4)cc3)cc2)nc1C(N)=O [Example 33, 4-[(aminocarbonyl)amino]-1-{4′-[(pyridin-2-ylamino)carbonyl]-1,1′-biphenyl-4-yl}-1H-pyrazole-3-carboxamide]
21 | 0.75 µM | NC(=O)Nc1cn(-c2ccc(B(O)O)cc2)nc1C(N)=O [Example 337, 4-{3-(aminocarbonyl)-4-[(aminocarbonyl)amino]-1H-pyrazol-1-yl}phenylboronic acid]
22 | 0.21 µM | CCNC(=O)COc1cccc(-c2ccc(-n3cc(NC(N)=O)c(C(N)=O)n3)cc2)c1 [Example 335, 4-[(aminocarbonyl)amino]-1-{3′-[2-(ethylamino)-2-oxoethoxy]-1, 1′-biphenyl-4-yl}-1H-pyrazole-3-carboxamide]
23 | > 20 µM | CC(C)(C)c1ccc(-c2cccc(-n3cc(NC(N)=O)c(C(N)=O)n3)c2)cc1 [Example 362, 4-[(aminocarbonyl)amino]-1-(4′-tert-butyl-1,1′-biphenyl-3-yl)-1H-pyrazole-3-carboxamide]
24 | > 20 µM | CC(C)(C)c1ccc(-c2ccc(-n3cc(C(N)=O)c(NC(N)=O)n3)cc2)cc1 [Example 126]
25 | 0.831 µM | NC(=O)Nc1cn(-c2ccc(Sc3ccccc3F)cc2)nc1C(N)=O [Example 190, 1-(1-(4-(2-fluorophenylthio)phenyl)-3-carbamoyl-1H-pyrazol-4-yl)urea]
26 | 1.04 µM | NC(=O)Nc1cn(-c2ccc(SC3CCCCC3)cc2)nc1C(N)=O [Example 189, 1-(3-carbamoyl-1-(4-(cyclohexylthio)phenyl)-1H-pyrazol-4-yl)urea]
27 | 0.892 µM | NC(=O)Nc1cn(-c2ccc(-c3ccccc3O)cc2F)nc1C(N)=O [Example 249, 4-[(aminocarbonyl)amino]-1-(3-fluoro-2′-hydroxy-1,1′-biphenyl-4-yl)-1H-pyrazole-3-carboxamide]
28 | 0.66 µM | NC(=O)Nc1cn(-c2cccc(-c3ccc(O)cc3)c2)nc1C(N)=O [Example 47, 4-[(aminocarbonyl)amino]-1-(4′-hydroxy-1,1 ′-biphenyl-3-yl)-1H-pyrazole-3-carboxamide]
29 | 1.83 µM | CC(C#N)Oc1cccc(-c2ccc(-n3cc(NC(N)=O)c(C(N)=O)n3)cc2)c1 (stereo not shown) [Example 169, 4-[(aminocarbonyl)amino]-1-[3′-(1-cyanoethoxy)-1,1′-biphenyl-4-yl]-1H-pyrazole-3-carboxamide]
30 | > 20 µM | NC(=O)Nc1cn(-c2cccc(-c3cccc(-c4ccccc4)c3)c2)nc1C(N)=O [Example 372]
31 | 0.51 µM | N#CCOc1cccc(-c2ccc(-n3cc(NC(N)=O)c(C(N)=O)n3)c(F)c2)c1 [Example 179, 4-[(aminocarbonyl)amino]-1-[3′-(cyanomethoxy)-3-fluoro-1,1′-biphenyl-4-yl]-1H-pyrazole-3-carboxamide]
32 | 3.9 µM | N#CCOc1cccc(-c2ccc(-n3cc(NC(N)=O)c(C(N)=O)n3)cc2C(F)(F)F)c1 [Example 237, 4-[(aminocarbonyl)amino]-1-[3′-(cyanomethoxy)-2-(trifluoromethyl)-1,1′-biphenyl-4-yl]-1H-pyrazole-3-carboxamide]
33 | 1.4 µM | NC(=O)Nc1cn(-c2ccc(C(=O)N3CCCCC3)cc2)nc1C(N)=O [Example 303, 4-[(aminocarbonyl)amino]-1-[4-(piperidin-1-ylcarbonyl)phenyl]-1H-pyrazole-3-carboxamide]
34 | > 20 µM | CCOc1cc(-n2cc(NC(N)=O)c(C(N)=O)n2)ccc1-c1ccc(O)cc1 [Example 274, 4-[(aminocarbonyl)amino]-1-(2-ethoxy-4′-hydroxy-1,1′-biphenyl-4-yl)-1H-pyrazole-3-carboxamide]

From patent US20050197338A1, “Substituted pyrazole urea compounds for the treatment of inflammation” (priority 2003, published 2005)
